Measured values as given in patent publication US8822468B2 (Novartis AG, priority 2008, dated 2014).

Biological target: T1, cMET receptor tyrosine kinase (GST-cMET (969-1390)) (Homo sapiens, UniProt P08581)
T1 construct: made in house
Test: EPK cMET profiling assay (LanthaScreen TR-FRET antibody based kinase phosphorylation assay)
Format: biochemical
Details: purified recombinant GST-cMET (969-1390), 2 μM ATP, 50 nM Fluorescein-PolyEAY, 60 minutes at room temperature; read-out: c-Met IC50
Method in brief: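 Compounds tested at eight final concentrations from 10 down to 0.003 µM against affinity-purified GST-cMET (969-1390, 0.3 nM) with 2 µM ATP and 50 nM fluorescein-PolyEAY in Tris buffer with MgCl2 and MnCl2, 1 h at room temperature. After EDTA stop, phosphoproduct detected by LanthaScreen TR-FRET with Tb-PY20 antibody, end-point measurement.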

T1 sequence (P08581 969-1390): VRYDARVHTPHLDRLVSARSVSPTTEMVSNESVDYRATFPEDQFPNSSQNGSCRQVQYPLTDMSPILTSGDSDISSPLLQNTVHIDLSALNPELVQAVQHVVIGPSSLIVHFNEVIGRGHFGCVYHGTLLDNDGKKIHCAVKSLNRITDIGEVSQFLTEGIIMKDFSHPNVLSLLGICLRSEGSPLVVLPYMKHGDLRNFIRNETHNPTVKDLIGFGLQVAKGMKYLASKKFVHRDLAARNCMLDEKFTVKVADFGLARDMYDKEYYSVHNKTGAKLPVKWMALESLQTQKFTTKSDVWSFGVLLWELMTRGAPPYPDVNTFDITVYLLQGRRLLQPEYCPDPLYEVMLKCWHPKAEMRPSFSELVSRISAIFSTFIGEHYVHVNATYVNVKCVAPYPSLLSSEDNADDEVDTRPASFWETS

Row | Compound | IC50 [nM]
1 | c1cnc2ccc(Cc3cnc4ccc(-c5cncnc5)nn34)cc2c1 [Example 54, 6-(6-Pyrimidin-5-yl-imidazo[1,2-b]pyridazin-3-ylmethyl)-quinoline] | 120
2 | Cn1cc(-c2ccc3ncc(Cc4c[nH]c5ncccc45)n3n2)cn1 [Example 199, 6-(1-Methyl-1H-pyrazol-4-yl)-3-(1H-pyrrolo[2,3-b]pyridin-3-ylmethyl)-imidazo[1,2-b]pyridazine] | 35.5
3 | C[C@H](c1c(F)cc2ncccc2c1F)c1cnc2ccc(-c3cnn(C)c3)nn12 [Example 193, 5,7-Difluoro-6-{(R)-1-[6-(1-methyl-1H-pyrazol-4-yl)-imidazo[1,2-b]pyridazin-3-yl]-ethyl}-quinoline] | 250
4 | Clc1cccc(Nc2ccc3ncc(Cc4ccc5ncccc5c4)n3n2)c1Cl [Example 136, (2,3-Dichloro-phenyl)-(3-quinolin-6-ylmethyl-imidazo[1,2-b]pyridazin-6-yl)-amine] | 350
5 | c1cnc2ccc(Cc3cnc4ccc(-c5ccc6c(c5)CCO6)nn34)cc2c1 [Example 63, 6-[6-(2,3-Dihydro-benzofuran-5-yl)-imidazo[1,2-b]pyridazin-3-ylmethyl]-quinoline] | 190
6 | CN(C)C(=O)c1cccc(-c2ccc3ncc(Cc4ccc5ncccc5c4)n3n2)c1 [Example 59, N,N-Dimethyl-3-(3-quinolin-6-6-ylmethyl-imidazo[1,2-b]pyridazin-6-yl)-benzamide] | 560
7 | Cn1cc(-c2ccc3ncc(Cc4ccc(O)cc4)n3n2)cn1 [Example 5, 4-[6-(1-Methyl-1H-pyrazol-4-yl)-imidazo[1,2-b]pyridazin-3-ylmethyl]-phenol] | 53
8 | c1ccc(Nc2ccc3ncc(Cc4ccc5ncccc5c4)n3n2)cc1 [Example 122, Phenyl-(3-quinolin-6-ylmethyl-imidazo[1,2-b]pyridazin-6-yl)-amine] | 73
9 | CC(Nc1ccc2ncc(Cc3ccc4ncccc4c3)n2n1)c1ccccc1 (stereo not shown) [Example 103, (1-Phenyl-ethyl)-(3-quinolin-6-ylmethyl-imidazo[1,2-b]pyridazin-6-yl)-amine] | 550
10 | C=C(c1ccc2ncccc2c1)c1cnc2ccc(-c3cnn(C)c3)nn12 [Example 155, 6-{1-[6-(1-Methyl-1H-pyrazol-4-yl)-imidazo[1,2-b]pyridazin-3-yl]-vinyl}-quinoline] | 860
11 | COc1ccc(C(O)c2cnc3ccc(-c4cnn(C)c4)nn23)cc1 (racemic) [Example 3, (rac)-(4-Methoxy-phenyl)-[6-(1-methyl-1H-pyrazol-4-yl)-imidazo[1,2-b]pyridazin-3-yl]-methanol] | 3950
12 | Cn1cc(-c2ccc3ncc(Cc4c(F)cc5c(cnn5C)c4F)n3n2)cn1 [Example 284, 3-(4,6-Difluoro-1-methyl-1H-indazol-5-ylmethyl)-6-(1-methyl-1H-pyrazol-4-yl)-imidazo[1,2-b]pyridazine] | 150
13 | Cn1cc(-c2ccc3ncc(Cc4ccc5nc(F)cn5c4)n3n2)cn1 [Example 288, 3-(2-Fluoro-imidazo[1,2-a]pyridin-6-ylmethyl)-6-(1-methyl-1H-pyrazol-4-yl)-imidazo[1,2-b]pyridazine] | 850
14 | Cc1ccc(-c2ccc3ncc(Cc4ccc5ncccc5c4)n3n2)cc1 [Example 16, 6-(6-p-Tolyl-imidazo[1,2-b]pyridazin-3-ylmethyl)-quinoline] | 94.5
15 | Cn1cc(-c2ccc3ncc(Cc4ccc5ncccc5c4Cl)n3n2)cn1 [Example 172, 5-Chloro-6-[6-(1-methyl-1H-pyrazol-4-yl)-imidazo[1,2-b]pyridazin-3-ylmethyl]-quinoline] | 10
16 | c1cnc2ccc(Cc3cnc4ccc(NC5CCCC5)nn34)cc2c1 [Example 81, Cyclopentyl-(3-quinolin-6-ylmethyl-imidazo[1,2-b]pyridazin-6-yl)-amine] | 76
17 | Fc1cc2ncccc2c(F)c1Cc1cnc2ccc(-c3cn[nH]c3)nn12 [Example 263, 5,7-Difluoro-6-[6-(1H-pyrazol-4-yl)-imidazo[1,2-b]pyridazin-3-ylmethyl]-quinoline] | 10
18 | CS(=O)(=O)c1cccc(Nc2ccc3ncc(Cc4ccc5ncccc5c4)n3n2)c1 [Example 139, (3-Methanesulfonyl-phenyl)-(3-quinolin-6-ylmethyl-imidazo[1,2-b]pyridazin-6-yl)-amine] | 130
19 | CC(C)Nc1ccc2ncc(Cc3ccc4ncccc4c3)n2n1 [Example 91, Isopropyl-(3-quinolin-6-ylmethyl-imidazo[1,2-b]pyridazin-6-yl)-amine] | 29
20 | Cn1cc(-c2ccc3ncc(Cc4cc5cn[nH]c5cc4F)n3n2)cn1 [Example 167, 3-(6-Fluoro-1H-indazol-5-ylmethyl)-6-(1-methyl-1H-pyrazol-4-yl)-imidazo[1,2-b]pyridazine] | 6

Row | Compound | IC50 [nM]
21 | c1cnc2ccc(Cc3cnc4ccc(-c5cncc6ccccc56)nn34)cc2c1 [Example 42, 6-(6-Isoquinolin-4-yl-imidazo[1,2-b]pyridazin-3-ylmethyl)-quinoline] | 450
22 | CCn1cc(-c2ccc3ncc(C(O)c4cc5cccnc5cc4F)n3n2)cn1 (racemic) [Example 249, (rac)-[6-(1-Ethyl-1H-pyrazol-4-yl)-imidazo[1,2-b]pyridazin-3-yl]-(7-fluoro-quinolin-6-yl)methanol] | 380
23 | c1cncc(Nc2ccc3ncc(Cc4ccc5ncccc5c4)n3n2)c1 [Example 129, Pyridin-3-yl-(3-quinolin-6-ylmethyl-imidazo[1,2-b]pyridazin-6-yl)-amine] | 69
24 | Clc1ccc(-c2ccc3ncc(Cc4ccc5ncccc5c4)n3n2)cn1 [Example 47, 6-[6-(6-Chloro-pyridin-3-yl)-imidazo[1,2-b]pyridazin-3-ylmethyl]-quinoline] | 100
25 | COc1ccc(-c2ccc3ncc(Cc4ccc5ncccc5c4)n3n2)cn1 [Example 62, 6-[6-(6-Methoxy-pyridin-3-yl)-imidazo[1,2-b]pyridazin-3-ylmethyl]-quinoline] | 39
26 | CN(C)[C@@H]1CCN(c2ccc3ncc(Cc4ccc5nccn5c4)n3n2)C1 [Example 76, [(R)-1-(3-Imidazo[1,2-a]pyridin-6-ylmethyl-imidazo[1,2-b]pyridazin-6-yl)-pyrrolidin-3-yl]-dimethyl-amine] | 300
27 | C[C@@H](c1ccc2ncccc2c1)c1cnc2ccc(-c3cn[nH]c3)nn12 [Example 240, 6-{(S)-1-[6-(1H-Pyrazol-4-yl)-imidazo[1,2-b]pyridazin-3-yl]-ethyl}-quinoline] | 8.4
28 | c1cnc2ccc(Cc3cnc4ccc(-c5ccc6c(c5)OCO6)nn34)cc2c1 [Example 51, 6-(6-Benzo[1,3]dioxol-5-yl-imidazo[1,2-b]pyridazin-3-ylmethyl)-quinoline] | 95
29 | COc1ccc(Cc2cnc3ccc(-c4cnn(C)c4)nn23)cc1 [Example 4, 3-(4-methoxy-benzyl)-6-(1-methyl-1H-pyrazol-4-yl)-imidazo[1,2-b]pyridazine] | 280
30 | CN(C)[C@@H]1CCN(c2ccc3ncc(Cc4ccc5ncccc5c4)n3n2)C1 [Example 88, Dimethyl-[(R)-1-(3-quinolin-6-ylmethyl-imidazo[1,2-b]pyridazin-6-yl)-pyrrolidin-3-yl]-amine] | 12
31 | CC(O)c1cnc2ccc(Cc3cnc4ccc(-c5cnn(C)c5)nn34)cn12 (stereo not shown) [Example 303, 1-{6-[6-(1-Methyl-1H-pyrazol-4-yl)-imidazo[1,2-b]pyridazin-3-ylmethyl]-imidazo[1,2-a]pyridin-3-yl}-ethanol] | 190
32 | CC(c1ccc2nccn2c1)c1cnc2ccc(-c3cnn(C)c3)nn12 (racemic) [Example 293, (rac)-3-(1-Imidazo[1,2-a]pyridin-6-yl-ethyl)-6-(1-methyl-1H-pyrazol-4-yl)-imidazo[1,2-b]pyridazine] | 23
33 | c1cnc2ccc(Cc3cnc4ccc(-c5cc6ccccc6s5)nn34)cc2c1 [Example 38, 6-(6-Benzo[b]thiophen-2-yl-imidazo[1,2-b]pyridazin-3-ylmethyl)-quinoline] | 39
34 | c1cnc2ccc(Cc3cnc4ccc(-c5ccn[nH]5)nn34)cc2c1 [Example 69, 6-[6-(2H-Pyrazol-3-yl)-imidazo[1,2-b]pyridazin-3-ylmethyl]-quinoline] | 820
35 | CC(c1ccc(O)cc1)c1cnc2ccc(-c3cnn(CCO)c3)nn12 (racemic) [Example 221, (rac)-4-(1-{6-[1-(2-Hydroxy-ethyl)-1H-pyrazol-4-yl]-imidazo[1,2-b]pyridazin-3-yl}-ethyl)-phenol] | 240
36 | CC(c1ccc2ncccc2c1Cl)c1cnc2ccc(-c3cnn(C4CCN(C)CC4)c3)nn12 (stereo not shown) [Example 224, 5-Chloro-6-(1-{6-[1-(1-methyl-piperidin-4-yl)-1H-pyrazol-4-yl]-imidazo[1,2-b]pyridazin-3-yl}-ethyl)-quinoline] | 28
37 | O=S1(=O)CCC(Nc2ccc3ncc(Cc4ccc5ncccc5c4)n3n2)C1 (stereo not shown) [Example 99, 1,1-Dioxo-tetrahydro-1lambda*6*-thiophen-3-yl)-(3-quinolin-6-ylmethyl-imidazo[1,2-b]pyridazin-6-yl)-amine] | 120
38 | Cn1cc(-c2ccc3ncc(Cc4ccc5ncccc5c4F)n3n2)cn1 [Example 160, 5-Fluoro-6-[6-(1-methyl-1H-pyrazol-4-yl)-imidazo[1,2-b]pyridazin-3-ylmethyl]-quinoline] | 12
39 | Cc1nc2ccc(Cc3cnc4ccc(-c5cnn(C)c5)nn34)cc2s1 [Example 13, 3-(2-Methyl-benzothiazol-6-ylmethyl)-6-(1-methyl-1H-pyrazol-4-yl)-imidazo[1,2-b]pyridazine] | 73.5
40 | Cn1cc(-c2ccc3ncc(Cc4cn5ccnc5cc4F)n3n2)cn1 [Example 205, 3-(7-Fluoro-imidazo[1,2-a]pyridin-6-ylmethyl)-6-(1-methyl-1H-pyrazol-4-yl)-imidazo[1,2-b]pyridazine] | 47
